These results are taken from ChEMBL document CHEMBL5321192, “Synthesis and screening of novel 4-N-heterocyclic-2-aryl-6,7,8-trimethoxyquinazolines as antiproliferative and tubulin polymerization inhibitors” (Bioorg Med Chem, 2022).

Data set [1] has as its system MCF7. Briefly: Induction of apoptosis in human MCF7 cells assessed as late apoptotic cells at 10 uM incubated for 48 hrs by Annexin V-FITC/propidium iodide staining based flow cytometric analysis (reference value: 3.4 %). The class given is functional.
Data set [2] concerns MCF7. Briefly: Induction of cell cycle arrest in human MCF7 cells assessed as accumulation of cells at S phase at 10 uM incubated for 48 hrs by propidium iodide staining based flow cytometer analysis (reference value: 14.6 %). The class given is functional.
Data set [3] in a line: Cytotoxicity against human HEK293T cells assessed as cell growth inhibition incubated for 48 hrs by MTT assay. The class given is toxicity, cell-based, HEK-293T.
Data set [4] concerns MCF7. Description: Induction of apoptosis in human MCF7 cells assessed as early apoptotic cells at 10 uM incubated for 48 hrs by Annexin V-FITC/propidium iodide staining based flow cytometric analysis (reference value: 2.4 %). The class given is functional.
Data set [5] deals with MCF7. Description: Induction of apoptosis in human MCF7 cells assessed as viable cells at 10 uM incubated for 48 hrs by Annexin V-FITC/propidium iodide staining based flow cytometric analysis. The class given is functional. The following applies: read-out: Activity.
In data set [6] the test system is MCF7. Description: Induction of apoptosis in human MCF7 cells assessed as necrotic cells at 10 uM incubated for 48 hrs by Annexin V-FITC/propidium iodide staining based flow cytometric analysis (reference value: 1.3 %). The class given is functional.
The subject of data set [7] is HeLa. Briefly: Antiproliferative activity against human HeLa cells assessed as cell growth inhibition incubated for 48 hrs by MTT assay. The class given is functional, cell-based.
Data set [8] has as its system MCF7. Description: Induction of cell cycle arrest in human MCF7 cells assessed as accumulation of cells at G2/M phase at 10 uM incubated for 48 hrs by propidium iodide staining based flow cytometer analysis (reference value: 31.9 %). The class given is functional.
Data set [9] has as its system MCF7. Briefly: Induction of cell cycle arrest in human MCF7 cells assessed as accumulation of cells at G1/G0 phase at 10 uM incubated for 48 hrs by propidium iodide staining based flow cytometer analysis (reference value: 53.8 %). The class given is functional.
Data set [10] deals with HT-29. Briefly: Antiproliferative activity against human HT-29 cells assessed as cell growth inhibition incubated for 48 hrs by MTT assay. The class given is functional, cell-based. As to conditions: HT-29, 48 h.
In data set [11] the test system is MCF7. Briefly: Antiproliferative activity against human MCF7 cells assessed as cell growth inhibition incubated for 48 hrs by MTT assay. As to conditions: MCF7, 48 h. The class given is functional, cell-based.
The target in data set [12] is T1, Tubulin (Sus scrofa) (UniProt P02554+P02550). Briefly: Inhibition of porcine brain tubulin polymerization at 3 uM incubated for 60 mins in presence of GTP by spectrophotometric analysis. The class given is tissue-based.
Data set [13] addresses T1, Tubulin (Sus scrofa). Briefly: Inhibition of porcine brain tubulin polymerization incubated for 60 mins in presence of GTP by spectrophotometric analysis. The class given is tissue-based.
Data set [14] relates to Cell membrane. Description: Induction of mitochondrial membrane potential depolarization in human MCF7 cells at 10 uM incubated for 48 hrs by JC-1 staining based microplate reader assay. The class given is subcellular.
Data set [15] has as its target T1, Tubulin (Sus scrofa). Briefly: Inhibition of porcine brain tubulin polymerization at 100 nM incubated for 60 mins in presence of GTP by spectrophotometric analysis. The class given is tissue-based.

Calls of active or inactive are those of the source. No cut-off for these calls is given here.

T1 sequence (P02550 whole entry, looked up): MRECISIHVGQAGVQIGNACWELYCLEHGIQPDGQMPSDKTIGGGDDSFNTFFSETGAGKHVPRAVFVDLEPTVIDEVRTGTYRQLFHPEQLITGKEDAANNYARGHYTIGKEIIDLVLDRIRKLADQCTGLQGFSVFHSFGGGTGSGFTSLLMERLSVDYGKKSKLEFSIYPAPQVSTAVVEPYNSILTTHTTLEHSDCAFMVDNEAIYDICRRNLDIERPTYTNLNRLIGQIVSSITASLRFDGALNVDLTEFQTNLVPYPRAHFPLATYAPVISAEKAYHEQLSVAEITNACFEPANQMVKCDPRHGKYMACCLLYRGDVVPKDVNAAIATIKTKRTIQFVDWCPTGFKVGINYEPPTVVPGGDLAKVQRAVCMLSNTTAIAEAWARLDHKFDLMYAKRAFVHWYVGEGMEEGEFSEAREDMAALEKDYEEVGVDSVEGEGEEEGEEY
T1 sequence (P02554 whole entry, looked up): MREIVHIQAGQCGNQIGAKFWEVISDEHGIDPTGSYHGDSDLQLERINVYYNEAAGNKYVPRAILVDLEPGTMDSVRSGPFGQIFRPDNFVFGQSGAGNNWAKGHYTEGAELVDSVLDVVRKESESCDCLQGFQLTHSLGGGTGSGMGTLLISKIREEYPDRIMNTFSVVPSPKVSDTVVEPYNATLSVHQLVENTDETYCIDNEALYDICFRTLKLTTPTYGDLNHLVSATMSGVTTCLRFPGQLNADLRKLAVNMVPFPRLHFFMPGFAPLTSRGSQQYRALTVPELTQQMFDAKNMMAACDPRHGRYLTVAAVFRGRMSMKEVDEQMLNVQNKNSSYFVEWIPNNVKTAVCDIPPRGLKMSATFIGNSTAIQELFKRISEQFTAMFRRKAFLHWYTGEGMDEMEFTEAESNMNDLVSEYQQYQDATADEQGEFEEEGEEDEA

On to `COc1cc2c(c(OC)c1OC)-c1ccc(OC)c(=O)cc1[C@@H](NC(C)=O)CC2` [COLCHICINE], for which the Activity in data set [1] worked out at 54%; in data set [2], 4.1%; in data set [4], 15.5%; in [6] it was 2.8%; in [8], 89.4%; in [9], 5.4%. Moreover, the half-inhibitory concentration (IC50) at 48 h in data set [3] was > 25 µM. Besides, the viability at 10 µM in data set [5] was determined as 27.7%. Besides, in [7], the IC50 was determined as 17.8 µM.
As to `COc1cc2c(-n3nnc4ccccc43)nc(-c3ccc(Cl)cc3)nc2c(OC)c1OC`, in [3], the IC50 at 48 h was > 25 µM. Besides, the values for the half-inhibitory concentration (IC50) in data set [7], in [10] and in data set [11] were > 25 µM, 13 µM and 16.2 µM, respectively.
Take `COc1cc2c(-n3nnc4ccccc43)nc(-c3ccccc3)nc2c(OC)c1OC`: in data set [3], the IC50 at 48 h was > 25 µM. The IC50 in [7] is > 25 µM; in data set [10], 23.1 µM; in data set [11] it was 14.4 µM.
Regarding `COc1ccc(-c2nc(-n3ccnc3)c3cc(OC)c(OC)c(OC)c3n2)cc1OC`, the IC50 at 48 h in [3] was > 25 µM. The IC50 in data set [7] was 18.7 µM; in data set [10] it was > 25 µM; in data set [11] it was 22.1 µM.
For `COc1cc2c(-n3nnc4ccccc43)nc(-c3ccc(Br)cc3)nc2c(OC)c1OC`, in [3], the IC50 at 48 h is > 25 µM. Besides, the figures for the 50% inhibitory concentration (IC50) in data set [7], in data set [10] and in data set [11] were 10.2 µM, > 25 µM and 15.2 µM, respectively.
In the case of `COc1cc2c(-n3cnnc3)nc(-c3ccccc3C(F)(F)F)nc2c(OC)c1OC`, the IC50 at 48 h in [3] is > 25 µM. Also, the figures for the IC50 in data set [7], in [10] and in data set [11] were > 25 µM, 11.8 µM and 13.7 µM, respectively.
Regarding `COc1ccc(-c2nc(-n3nnc4ccccc43)c3cc(OC)c(OC)c(OC)c3n2)cc1`, the IC50 at 48 h in [3] was > 25 µM. Further, the results for the IC50 in data set [7], in data set [10] and in data set [11] were > 25 µM, > 25 µM and 18.1 µM, respectively.
Take `COc1cc2c(N3CCOCC3)nc(-c3ccccc3)nc2c(OC)c1OC`: the IC50 at 48 h in data set [3] was > 25 µM. Also, the IC50 in [7], in data set [10] and in data set [11] was > 25 µM throughout.
In the case of `COc1cc2c(-n3cnnc3)nc(-c3ccc(Cl)cc3)nc2c(OC)c1OC`, in data set [3], the IC50 at 48 h is > 25 µM. The IC50 in data set [7] was 13.3 µM; in data set [10], > 25 µM; in data set [11], 8.33 µM.
Turning to `CC(=O)O[C@H]1C(=O)[C@@]2(C)[C@H]([C@H](OC(=O)c3ccccc3)[C@]3(O)C[C@H](OC(=O)[C@H](O)[C@@H](NC(=O)c4ccccc4)c4ccccc4)C(C)=C1C3(C)C)[C@]1(OC(C)=O)CO[C@@H]1C[C@@H]2O`, the inhibition entry in data set [12] was “Active”.
`COc1cc(-c2nc(-n3cnnc3)c3cc(OC)c(OC)c(OC)c3n2)cc(OC)c1OC`: the IC50 at 48 h in [3] was > 25 µM. Moreover, the IC50 in data set [7] is > 25 µM; in data set [10], 5.45 µM; in [11], 23.4 µM.
`COc1cc2c(-n3cnnc3)nc(-c3ccc(Br)cc3)nc2c(OC)c1OC`: in data set [3], the IC50 at 48 h is > 25 µM. For the same compound, the IC50 in data set [7] is > 25 µM; in [10], > 25 µM; in data set [11] it was 8.59 µM.
`COc1cc2c(-n3cnnc3)nc(-c3ccccc3)nc2c(OC)c1OC`: in data set [3], the IC50 at 48 h is > 25 µM. The half-inhibitory concentration (IC50) in data set [7], in data set [10] and in [11] was > 25 µM each time.
In the case of `COc1cc(-c2nc(-n3nnc4ccccc43)c3cc(OC)c(OC)c(OC)c3n2)cc(OC)c1OC`, in data set [3], the concentration for half-maximal inhibition (IC50) at 48 h is > 25 µM. Besides, the IC50 in data set [7], in data set [10] and in data set [11] was > 25 µM in each case.
As to `COc1cc2c(-n3ccnc3)nc(-c3ccccc3)nc2c(OC)c1OC`, the IC50 at 48 h in data set [3] is > 25 µM. The IC50 in data set [7] was 14.7 µM; in data set [10] it was 15.2 µM; in data set [11], 12.2 µM.
The like results for `COc1ccc(-c2nc(-n3cnnc3)c3cc(OC)c(OC)c(OC)c3n2)cc1` were, in that order, > 25 µM, 10.3 µM, > 25 µM and > 25 µM.
As for `COc1cc2c(-n3ccnc3)nc(-c3ccc(Cl)cc3)nc2c(OC)c1OC`, the Activity worked out at 41.1% in data set [1]; 4.9% in data set [2]; 19.9% in data set [4]; 4.1% in data set [6]; 82.6% in [8]; 11.5% in data set [9]. The IC50 at 48 h in [3] is > 25 µM. Further, the viability at 10 µM in [5] was 34.9%. Moreover, in [13], the inhibition entry is “Dose-Dependent Effect”. Also, the result in data set [14] was Active. The inhibition entry in [15] was “Active”. Further, the IC50 in data set [7] is 8.53 µM; in data set [10], 10.4 µM; in [11], 2.16 µM.
As to `COc1cc2c(-n3ccnc3)nc(-c3ccc(Br)cc3)nc2c(OC)c1OC`, the Activity in data set [1] is 70.9%; in data set [2], 8.5%; in data set [4], 9.4%; in [6], 7.9%; in data set [8], 17.7%; in data set [9], 70.3%. In addition, the IC50 at 48 h in data set [3] is > 25 µM. In addition, the viability at 10 µM in data set [5] is 11.8%. Also, the result in data set [14] was inactive. Further, the values for the IC50 in data set [7], in data set [10] and in [11] were 17.4 µM, 6.76 µM and 6.37 µM, respectively.
